From patent US12479848B2, “Substituted fused heteroaromatic bicyclic compounds as kinase inhibitors and the use thereof” (IMPACT THERAPEUTICS (SHANGHAI), INC, priority 2019, dated 2025)

What was measured:
[1] = system: human prostate cancer cell DU145; assay: MTT proliferation assay, DU145; assay type: cell-based
Procedure: The cells were digested by trypsinase and centrifuged at 800 rpm for 5 minutes, the supernatant was discarded, and the residual was resuspended with fresh medium (DMEM medium+10% FBS+non-essential amino acid) and counted. The cells were seeded into 96-well cell culture plate with a density of 2000 cells per well and incubated overnight in a 5% CO2 incubator at 37° C. […] 5 μL of each concentration was added to 120 μL of medium (25 times diluted) and mixed by shaking. The overnight cell plates were taken and the culture medium was removed, 195 μL of fresh medium was added to each well, and 5 μL of diluted medium containing the corresponding concentration of the test compound was added respectively (the final concentrations of compounds are shown in Table 3, the final concentration of DMSO is 1%), and the culture plate was then placed in a 5% CO2 incubator at 37° C. for 4 days. After removing the original solution, 100 μL of fresh serum-free DMEM medium containing MTT (0.5 mg/mL) was added to each well, the culture was continued. […] GraphPad Prism 6.0 was used to analyze the data. The inhibitory activity of compounds on cell proliferation was plotted based on cell viability and the logarithm of compound concentration. Cell viability %=(ODcompound−ODbackground)/(ODDMSO−ODbackground)×100.

[2] = biological target: T1, ATR/ATRIP enzyme (Homo sapiens, UniProt Q13535); assay: ATR enzyme activity experiment (HTRF); assay type: biochemical
T1 construct: purchased Eurofins 14-953
Procedure: The test compound was diluted to a 4× final concentration with reaction buffer (25 mM HEPES (pH8.0), 10 mM MnCl2, 1% glycerol, 0.01% Brij-35, 5 mM DTT and 0.1% BSA). […] The mixture was centrifuged at 1000 rpm for 1 minute, and reacted at room temperature protected from light for 30 minutes. Then 5 μL of EDTA stop solution (250 mM) was added to stop the reaction. […] Data were analyzed using GraphPad Prism6.0, and fitted using the curve equation: Y=Bottom+(Top−Bottom)/(1+10^((Log IC50−X)*HillSlope)) and IC50 values were calculated.

[3] = system: human lung cancer cell NCI-H460; assay: MTT proliferation assay, NCI-H460; assay type: cell-based
Procedure: (§1) The cells were seeded into 96-well cell culture plate with a density of 2000/4000 cells per well and incubated overnight in a 5% CO2 incubator at 37° C. […] 5 L diluent of each concentration was added to 120 μL of medium (25 times diluted) and mixed by shaking. The overnight cell plates were taken and the culture medium was removed, 195 μL of fresh medium was added to each well, and 5 μL of diluted medium containing the corresponding concentration of the test compound was added respectively (the final concentration of DMSO is 1%), and the culture plate was then placed in a 5% CO2 incubator at 37° C. for 4 days. After removing the original solution, 100 μL of fresh serum-free DMEM medium containing MTT (0.5 mg/mL) was added to each well, the culture was continued. […] Cell viability (%)=(ODcompound−ODbackground)/(ODDMSO−ODbackground)×100. GraphPad Prism 6.0 was used to analyze the data. The inhibitory activity of compounds on cell proliferation was plotted based on cell viability and the logarithm of compound concentration.

[4] = system: human colon cancer cell LoVo; assay: MTT proliferation assay, LoVo; assay type: cell-based
Procedure: as §1, with “5 μL” for “5 L”, “viability (%)=(ODcompound−ODbackground)/(ODDMSO-ODbackground)×100.” for “viability (%)=(ODcompound−ODbackground)/(ODDMSO−ODbackground)×100.”

T1 sequence (Q13535 whole entry): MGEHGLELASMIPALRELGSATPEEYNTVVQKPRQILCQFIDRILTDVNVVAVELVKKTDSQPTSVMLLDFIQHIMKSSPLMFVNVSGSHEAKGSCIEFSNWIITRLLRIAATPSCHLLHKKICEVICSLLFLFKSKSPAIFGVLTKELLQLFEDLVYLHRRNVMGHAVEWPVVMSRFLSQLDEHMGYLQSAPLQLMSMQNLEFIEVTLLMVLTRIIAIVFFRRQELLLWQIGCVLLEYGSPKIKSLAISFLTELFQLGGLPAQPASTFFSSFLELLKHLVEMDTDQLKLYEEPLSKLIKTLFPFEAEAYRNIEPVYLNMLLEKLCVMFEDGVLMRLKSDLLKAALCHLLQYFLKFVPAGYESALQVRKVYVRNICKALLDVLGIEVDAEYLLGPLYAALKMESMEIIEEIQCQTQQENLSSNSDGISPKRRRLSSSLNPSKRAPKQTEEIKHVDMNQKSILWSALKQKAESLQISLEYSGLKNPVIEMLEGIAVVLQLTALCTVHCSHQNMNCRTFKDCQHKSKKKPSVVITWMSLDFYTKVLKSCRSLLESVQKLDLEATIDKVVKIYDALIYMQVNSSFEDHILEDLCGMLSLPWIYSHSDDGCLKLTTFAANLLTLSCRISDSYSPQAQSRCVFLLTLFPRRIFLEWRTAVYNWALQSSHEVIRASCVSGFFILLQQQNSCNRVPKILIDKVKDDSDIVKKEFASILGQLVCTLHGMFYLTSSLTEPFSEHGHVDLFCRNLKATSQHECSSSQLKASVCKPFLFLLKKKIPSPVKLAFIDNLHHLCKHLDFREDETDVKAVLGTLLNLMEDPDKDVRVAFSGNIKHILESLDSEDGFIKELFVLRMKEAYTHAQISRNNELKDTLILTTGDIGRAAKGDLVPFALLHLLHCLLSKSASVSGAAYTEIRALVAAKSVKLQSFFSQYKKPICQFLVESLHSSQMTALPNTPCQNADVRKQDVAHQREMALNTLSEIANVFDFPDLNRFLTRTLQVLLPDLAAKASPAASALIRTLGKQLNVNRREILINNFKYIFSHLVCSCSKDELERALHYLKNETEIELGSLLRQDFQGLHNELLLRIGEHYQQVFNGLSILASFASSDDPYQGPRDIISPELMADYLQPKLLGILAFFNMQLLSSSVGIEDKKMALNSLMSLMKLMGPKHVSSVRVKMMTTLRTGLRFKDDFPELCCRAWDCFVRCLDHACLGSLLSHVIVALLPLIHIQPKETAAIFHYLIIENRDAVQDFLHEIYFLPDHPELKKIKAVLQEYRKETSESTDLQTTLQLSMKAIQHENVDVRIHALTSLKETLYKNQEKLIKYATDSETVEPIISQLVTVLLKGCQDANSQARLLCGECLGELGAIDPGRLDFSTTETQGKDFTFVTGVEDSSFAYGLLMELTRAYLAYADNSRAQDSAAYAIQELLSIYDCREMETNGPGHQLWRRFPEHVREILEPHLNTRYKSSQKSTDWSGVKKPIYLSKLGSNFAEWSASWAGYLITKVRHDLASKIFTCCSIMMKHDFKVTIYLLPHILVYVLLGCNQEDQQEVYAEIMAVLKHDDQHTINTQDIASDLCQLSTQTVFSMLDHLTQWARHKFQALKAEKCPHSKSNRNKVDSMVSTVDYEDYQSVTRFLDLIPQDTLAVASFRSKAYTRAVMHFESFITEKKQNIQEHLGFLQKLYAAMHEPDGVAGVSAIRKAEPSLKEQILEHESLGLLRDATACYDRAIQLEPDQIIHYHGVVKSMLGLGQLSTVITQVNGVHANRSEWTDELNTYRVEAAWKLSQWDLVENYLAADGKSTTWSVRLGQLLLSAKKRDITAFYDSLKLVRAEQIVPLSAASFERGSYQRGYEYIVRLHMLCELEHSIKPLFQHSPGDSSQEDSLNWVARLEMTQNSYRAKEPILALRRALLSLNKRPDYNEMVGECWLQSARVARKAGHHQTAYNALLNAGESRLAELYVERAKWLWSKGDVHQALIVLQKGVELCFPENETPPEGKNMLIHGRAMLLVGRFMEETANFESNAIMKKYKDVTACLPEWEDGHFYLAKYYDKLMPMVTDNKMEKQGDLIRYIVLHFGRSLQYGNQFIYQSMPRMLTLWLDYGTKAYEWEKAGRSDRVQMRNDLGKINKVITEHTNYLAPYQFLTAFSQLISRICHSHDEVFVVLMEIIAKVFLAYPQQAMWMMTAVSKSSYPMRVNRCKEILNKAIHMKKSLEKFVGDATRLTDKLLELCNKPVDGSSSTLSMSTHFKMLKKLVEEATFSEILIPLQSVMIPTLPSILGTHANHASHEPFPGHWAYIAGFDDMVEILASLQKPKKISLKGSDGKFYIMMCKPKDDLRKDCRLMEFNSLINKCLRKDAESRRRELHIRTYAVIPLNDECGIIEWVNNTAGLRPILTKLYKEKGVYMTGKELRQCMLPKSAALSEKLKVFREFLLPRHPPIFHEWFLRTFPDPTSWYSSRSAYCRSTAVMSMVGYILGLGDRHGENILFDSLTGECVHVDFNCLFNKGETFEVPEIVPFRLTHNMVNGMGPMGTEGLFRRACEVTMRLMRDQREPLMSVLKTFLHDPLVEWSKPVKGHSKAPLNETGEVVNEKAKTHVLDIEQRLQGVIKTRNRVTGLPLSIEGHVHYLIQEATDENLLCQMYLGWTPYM
T1 sequence (Q8WXE1 whole entry partner): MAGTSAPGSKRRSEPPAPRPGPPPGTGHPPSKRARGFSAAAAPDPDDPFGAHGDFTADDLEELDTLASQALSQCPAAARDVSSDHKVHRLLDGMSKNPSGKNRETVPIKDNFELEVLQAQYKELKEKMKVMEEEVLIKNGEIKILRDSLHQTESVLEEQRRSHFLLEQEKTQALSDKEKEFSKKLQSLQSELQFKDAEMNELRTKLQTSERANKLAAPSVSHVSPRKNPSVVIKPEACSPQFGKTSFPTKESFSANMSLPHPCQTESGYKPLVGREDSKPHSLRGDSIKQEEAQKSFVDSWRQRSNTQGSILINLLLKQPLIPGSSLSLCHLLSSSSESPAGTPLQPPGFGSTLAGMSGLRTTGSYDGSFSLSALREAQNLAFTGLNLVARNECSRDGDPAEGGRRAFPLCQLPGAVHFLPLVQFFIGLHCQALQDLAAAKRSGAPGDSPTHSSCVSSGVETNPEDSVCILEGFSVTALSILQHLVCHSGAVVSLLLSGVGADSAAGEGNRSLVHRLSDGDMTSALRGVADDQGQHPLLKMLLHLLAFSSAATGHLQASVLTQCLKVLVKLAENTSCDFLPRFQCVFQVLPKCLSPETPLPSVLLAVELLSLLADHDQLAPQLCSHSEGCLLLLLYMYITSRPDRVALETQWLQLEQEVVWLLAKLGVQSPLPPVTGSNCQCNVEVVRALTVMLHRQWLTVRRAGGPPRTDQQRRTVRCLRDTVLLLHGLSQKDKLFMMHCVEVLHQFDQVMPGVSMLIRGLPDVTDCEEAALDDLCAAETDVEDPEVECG

With `C[C@@H]1COCCN1c1cc(-c2ccnn2C)c2cnc(-c3ccn[nH]3)n2n1` [Example 13, (R)-3-methyl-4-(4-(1-methyl-1H-pyrazol-5-yl)-7-(1H-pyrazol-5-yl)imidazo[1,5-b]pyridazin-2-yl)morpholine] the “inhibitory effect on the proliferation of DU145 cell (in words)” value [1] was “good inhibitory effect”, the IC50 ([1]; Homo sapiens, DU-145, 96 h, 4 days, read-out: IC50 (nM), inhibition of proliferation of DU145) was 131 nM and the “inhibitory effect on ATR kinase activity (in words)” value ([2]; ATR enzyme activity experiment) was “good inhibitory effect”. The IC50 ([2]; read-out: IC50 (nM), inhibitory effects on ATR kinase activity, HTRF, p53 substrate, 30 minutes at room temperature) was 4 nM, the “inhibitory effect on the proliferation of NCI-H460 cell (in words)” value [3] was “good inhibitory effect” and the IC50 ([3]; Homo sapiens, NCI-H460, 96 h, 4 days, read-out: IC50 (nM), inhibition of proliferation of NCI-H460) was 41.3 nM. The “inhibitory effect on the proliferation of LoVo cell (in words)” value [4] was “good inhibitory effect” and the IC50 ([4]; Homo sapiens, LoVo, 96 h, 4 days, read-out: IC50 (nM), inhibition of proliferation of LoVo) was 53.5 nM.
